{
  "source": "patent US12703836B2",
  "about": "“Mixture of compounds with high molecular weights, obtained from sugar cane wax (Saccharum officinarum L.)” (CENTRO NACIONAL DE INVESTIGACIONES CIENTÍFICAS, priority 2021, dated 2026)",
  "key": {"[1]": {"system": "Mongolian gerbils with global brain Ischemia/Reperfusion (I/R)", "assay": "Locomotor activity (open field) after global cerebral ischemia/reperfusion", "type": "in vivo", "conditions": "24 hours post-ischemia, oral HMWS 200, AcGS 132, AlcG 40, AldG 28, AcGL 200, ASA 60 mg/kg", "text": "For the evaluation of the neuroprotective effect of the mixture of high molecular weight substances, the object of the present invention, an experimental model of global cerebral ischemia by occlusion and reperfusion of the carotid arteries was used. The composition of High Molecular Weight Substances (HMWS) obtained in example 1 was subjected to a preclinical test with animals, in which its pharmacological effect was compared with the effects of pure extracts of Fatty Acids in the form of Salts (AcGS), fatty alcohols (AlcG) and high molecular weight aldehydes (AldG), which were administered in the dose equivalent to the proportion in which each one is present in 200 mg/kg of the HMWS Active Ingredient. Furthermore, the effect of HMWS was compared with the effect of pure free fatty acid (AcGL) extract administered at equal doses. […] Once the quarantine was over, the gerbils were distributed into 8 groups: a negative control that only received vehicle and cerebral ischemia (CI) was not induced and 7 groups with induced CI. […] All treatments were administered orally through intragastric intubation (0.5 mL/70 g body weight) 1 hour prior to induction of ischemia. […] For 6 minutes, the number of times the gerbils crossed the different quadrants with their front legs and the number of times they stopped or leaned was quantified."}, "[2]": {"system": "plasma concentrations of MDA", "assay": "Plasma lipid peroxidation (SRATB, MDA) after cerebral ischemia/reperfusion", "type": "in vivo, Mongolian gerbils", "conditions": "gerbils, plasma after I/R; oral HMWS 200, AcGS 132, AlcG 40, AldG 28, AcGL 200, ASA 60 mg/kg", "text": "For the evaluation of the neuroprotective effect of the mixture of high molecular weight substances, the object of the present invention, an experimental model of global cerebral ischemia by occlusion and reperfusion of the carotid arteries was used. The composition of High Molecular Weight Substances (HMWS) obtained in example 1 was subjected to a preclinical test with animals, in which its pharmacological effect was compared with the effects of pure extracts of Fatty Acids in the form of Salts (AcGS), fatty alcohols (AlcG) and high molecular weight aldehydes (AldG), which were administered in the dose equivalent to the proportion in which each one is present in 200 mg/kg of the HMWS Active Ingredient. Furthermore, the effect of HMWS was compared with the effect of pure free fatty acid (AcGL) extract administered at equal doses. Once the quarantine was over, the gerbils were distributed into 8 groups: a negative control that only received vehicle and cerebral ischemia (CI) was not induced and 7 groups with induced CI. […] All treatments were administered orally through intragastric intubation (0.5 mL/70 g body weight) 1 hour prior to induction of ischemia. […] To determine lipid peroxidation, the formation of substances reactive to thiobarbituric acid (SRATB) was quantified (according to Ohkawa et al., 1979) in plasma, and was expressed as nmol malondialdehyde (MDA)/mg of protein."}},
  "data": [
    {"smiles": "CC(=O)Oc1ccccc1C(=O)O", "note": "[ASA, aspirin]", "values": [
      {"measurement": "Crosses (#), open field locomotor activity", "setting": "[1]; 6 minutes, mean ± SEM, positive control 355.5 ± 12.4, negative 250.8 ± 14.8", "result": "286.2 ± 15.2 #"},
      {"measurement": "Inhibition (%) of hyperlocomotion (crosses)", "setting": "[1]", "result": 66.2, "unit": "%"},
      {"measurement": "Inhibition (%) of MDA increase", "setting": "[2]", "result": 0.0, "unit": "%"}
    ]}
  ]
}
